Results: ChEMBL document CHEMBL4251574, “Design, synthesis, and biological evaluation of new 1,2,3-triazolo-2'-deoxy-2'-fluoro- 4'-azido nucleoside derivatives as potent anti-HBV agents” (Eur J Med Chem, 2018)

Experiments:
Hepatitis B virus [1] = test: Antiviral activity against Hepatitis B virus harboring rtV173L/L180M/M204V mutant infected in HepGRL1 cells assessed as inhibition of intracellular HBV DNA level at 20 uM measured on day 6 by FQ-PCR analysis relative to control; type: functional; settings: 144 h
Duck hepatitis B virus [2] = test: Antiviral activity against DHBV infected in duck assessed as inhibition of viral DNA level in serum at 10 mg/kg, po administered once daily measured on day 10 by SYBR Green I dye-based FQ-PCR analysis relative to control; type: functional; settings: 240 h
Hepatitis B virus [3] = test: Antiviral activity against Hepatitis B virus infected in human HepG2.2.15 cells assessed as inhibition of HBeAg secretion at 20 uM after 9 days by ELISA relative to control; type: functional; settings: HepG2.2.15, 216 h
Hepatitis B virus [4] = test: Antiviral activity against Hepatitis B virus harboring rtV173L/L180M/M204V mutant infected in HepGRL1 cells assessed as inhibition of intracellular HBV DNA level at 20 uM measured on day 9 by FQ-PCR analysis relative to control; type: functional; settings: 216 h
Duck hepatitis B virus [5] = test: Antiviral activity against DHBV infected in duck assessed as inhibition of viral DNA level in serum at 10 mg/kg, po administered once daily measured on day 15 by SYBR Green I dye-based FQ-PCR analysis relative to control; type: functional; settings: 360 h
Hepatitis B virus [6] = test: Antiviral activity against Hepatitis B virus infected in human HepG2.2.15 cells assessed as intracellular HBV DNA levels at 20 uM measured on day 6 by FQ-PCR analysis; type: functional; settings: HepG2.2.15, 144 h
Hepatitis B virus [7] = test: Antiviral activity against Hepatitis B virus infected in human HepG2.2.15 cells assessed as inhibition of intracellular HBV DNA level at 20 uM measured on day 9 by FQ-PCR analysis; type: functional; settings: HepG2.2.15, 216 h
HepG2 2.2.15 = test: Cytotoxicity against human HepG2.2.15 cells after 9 days by MTT assay; type: functional; settings: HepG2 2.2.15, 216 h
Duck hepatitis B virus [8] = test: Antiviral activity against DHBV infected in duck assessed as inhibition of viral DNA level in liver at 10 mg/kg, po administered once daily measured on day 10 by SYBR Green I dye-based FQ-PCR analysis relative to control; type: functional; settings: 240 h
Duck hepatitis B virus [9] = test: Antiviral activity against DHBV infected in duck assessed as inhibition of viral DNA level in liver at 10 mg/kg, po administered once daily measured on day 15 by SYBR Green I dye-based FQ-PCR analysis relative to control; type: functional; settings: 360 h
Hepatitis B virus [10] = test: Antiviral activity against Hepatitis B virus infected in human HepG2.2.15 cells assessed as inhibition of HBsAg secretion at 20 uM after 9 days by ELISA relative to control; type: functional; settings: HepG2.2.15, 216 h
Hepatitis B virus [11] = test: Antiviral activity against Hepatitis B virus infected in human HepG2.2.15 cells assessed as inhibition of intracellular HBV DNA level at 5 uM measured on day 9 by FQ-PCR analysis; type: functional; settings: HepG2.2.15, 216 h
Hepatitis B virus [12] = test: Antiviral activity against Hepatitis B virus harboring rtV173L/L180M/M204V mutant infected in HepGRL1 cells assessed as inhibition of intracellular HBV DNA level at 0.2 uM measured on day 9 by FQ-PCR analysis relative to control; type: functional; settings: 216 h
Duck hepatitis B virus [13] = test: Antiviral activity against DHBV infected in duck assessed as inhibition of viral DNA level in liver at 0.2 mg/kg, po administered once daily measured on day 10 by SYBR Green I dye-based FQ-PCR analysis relative to control; type: functional; settings: 240 h
Hepatitis B virus [14] = test: Antiviral activity against Hepatitis B virus infected in human HepG2.2.15 cells assessed as inhibition of intracellular HBV DNA level at 0.2 uM measured on day 9 by FQ-PCR analysis; type: functional; settings: HepG2.2.15, 216 h
Duck hepatitis B virus [15] = test: Antiviral activity against DHBV infected in duck assessed as inhibition of viral DNA level in serum at 0.2 mg/kg, po administered once daily measured on day 15 by SYBR Green I dye-based FQ-PCR analysis relative to control; type: functional; settings: 360 h
Hepatitis B virus [16] = test: Antiviral activity against Hepatitis B virus infected in human HepG2.2.15 cells assessed as inhibition of HBeAg secretion at 5 uM after 9 days by ELISA relative to control; type: functional; settings: HepG2.2.15, 216 h
Hepatitis B virus [17] = test: Antiviral activity against Hepatitis B virus infected in human HepG2.2.15 cells assessed as inhibition of intracellular HBV DNA level at 0.2 uM measured on day 6 by FQ-PCR analysis; type: functional; settings: HepG2.2.15, 144 h
Hepatitis B virus [18] = test: Antiviral activity against Hepatitis B virus harboring rtV173L/L180M/M204V mutant infected in HepGRL1 cells assessed as inhibition of intracellular HBV DNA level at 0.2 uM measured on day 6 by FQ-PCR analysis relative to control; type: functional; settings: 144 h
Hepatitis B virus [19] = test: Antiviral activity against Hepatitis B virus harboring rtV173L/L180M/M204V mutant infected in HepGRL1 cells assessed as inhibition of intracellular HBV DNA level at 1 uM measured on day 6 by FQ-PCR analysis relative to control; type: functional; settings: 144 h
Duck hepatitis B virus [20] = test: Antiviral activity against DHBV infected in duck assessed as inhibition of viral DNA level in serum at 1 mg/kg, po administered once daily measured on day 10 by SYBR Green I dye-based FQ-PCR analysis relative to control; type: functional; settings: 240 h
Duck hepatitis B virus [21] = test: Antiviral activity against DHBV infected in duck assessed as inhibition of viral DNA level in serum at 1 mg/kg, po administered once daily measured on day 15 by SYBR Green I dye-based FQ-PCR analysis relative to control; type: functional; settings: 360 h
Duck hepatitis B virus [22] = test: Antiviral activity against DHBV infected in duck assessed as inhibition of viral DNA level in serum at 0.2 mg/kg, po administered once daily measured on day 10 by SYBR Green I dye-based FQ-PCR analysis relative to control; type: functional; settings: 240 h
Hepatitis B virus [23] = test: Antiviral activity against Hepatitis B virus harboring rtV173L/L180M/M204V mutant infected in HepGRL1 cells assessed as inhibition of intracellular HBV DNA level at 5 uM measured on day 9 by FQ-PCR analysis relative to control; type: functional; settings: 216 h
Duck hepatitis B virus [24] = test: Antiviral activity against DHBV infected in duck assessed as inhibition of viral DNA level in liver at 0.2 mg/kg, po administered once daily measured on day 15 by SYBR Green I dye-based FQ-PCR analysis relative to control; type: functional; settings: 360 h
Hepatitis B virus [25] = test: Antiviral activity against Hepatitis B virus harboring rtV173L/L180M/M204V mutant infected in HepGRL1 cells assessed as inhibition of intracellular HBV DNA level at 5 uM measured on day 6 by FQ-PCR analysis relative to control; type: functional; settings: 144 h
Hepatitis B virus [26] = test: Antiviral activity against Hepatitis B virus infected in human HepG2.2.15 cells assessed as inhibition of intracellular HBV DNA level at 1 uM measured on day 9 by FQ-PCR analysis; type: functional; settings: HepG2.2.15, 216 h
Hepatitis B virus [27] = test: Antiviral activity against Hepatitis B virus harboring rtV173L/L180M/M204V mutant infected in HepGRL1 cells assessed as inhibition of intracellular HBV DNA level at 1 uM measured on day 9 by FQ-PCR analysis relative to control; type: functional; settings: 216 h
Hepatitis B virus [28] = test: Antiviral activity against Hepatitis B virus infected in human HepG2.2.15 cells assessed as inhibition of intracellular HBV DNA level at 5 uM measured on day 6 by FQ-PCR analysis; type: functional; settings: HepG2.2.15, 144 h
Hepatitis B virus [29] = test: Antiviral activity against Hepatitis B virus infected in human HepG2.2.15 cells assessed as inhibition of HBsAg secretion at 5 uM after 9 days by ELISA relative to control; type: functional; settings: HepG2.2.15, 216 h
Duck hepatitis B virus [30] = test: Antiviral activity against DHBV infected in duck assessed as inhibition of viral DNA level in liver at 1 mg/kg, po administered once daily measured on day 15 by SYBR Green I dye-based FQ-PCR analysis relative to control; type: functional; settings: 360 h
Hepatitis B virus [31] = test: Antiviral activity against Hepatitis B virus infected in human HepG2.2.15 cells assessed as inhibition of intracellular HBV DNA level at 1 uM measured on day 6 by FQ-PCR analysis; type: functional; settings: HepG2.2.15, 144 h
Duck hepatitis B virus [32] = test: Antiviral activity against DHBV infected in duck assessed as inhibition of viral DNA level in liver at 1 mg/kg, po administered once daily measured on day 10 by SYBR Green I dye-based FQ-PCR analysis relative to control; type: functional; settings: 240 h
Duck hepatitis B virus [33] = test: Antiviral activity against DHBV infected in duck assessed as inhibition of viral DNA level in liver at 0.04 mg/kg, po administered once daily measured on day 15 by SYBR Green I dye-based FQ-PCR analysis relative to control; type: functional; settings: 360 h
Duck hepatitis B virus [34] = test: Antiviral activity against DHBV infected in duck assessed as inhibition of viral DNA level in serum at 0.04 mg/kg, po administered once daily measured on day 15 by SYBR Green I dye-based FQ-PCR analysis relative to control; type: functional; settings: 360 h
Duck hepatitis B virus [35] = test: Antiviral activity against DHBV infected in duck assessed as inhibition of viral DNA level in liver at 0.04 mg/kg, po administered once daily measured on day 10 by SYBR Green I dye-based FQ-PCR analysis relative to control; type: functional; settings: 240 h
Duck hepatitis B virus [36] = test: Antiviral activity against DHBV infected in duck assessed as inhibition of viral DNA level in serum at 0.04 mg/kg, po administered once daily measured on day 10 by SYBR Green I dye-based FQ-PCR analysis relative to control; type: functional; settings: 240 h
[37] = tested on: Human immunodeficiency virus 1; test: Antiviral activity against HIV1 infected in human C8166 cells assessed as reduction in viral infection by measuring inhibition of syncytia formation incubated for 3 to 7 days by p24 detection based ELISA; type: functional, organism-based; settings: Human immunodeficiency virus 1, C8166

SMILES: Nc1ccn([C@@H]2CS[C@H](CO)O2)c(=O)n1 [LAMIVUDINE]
- inhibition at 20 µM (Hepatitis B virus [1]): 10.8%
- inhibition in vivo at 10 mg/kg (Duck hepatitis B virus [2]): 65.2%
- inhibition at 20 µM (Hepatitis B virus [3]): 22.1%
- inhibition at 20 µM (Hepatitis B virus [4]): 12.9%
- inhibition in vivo at 10 mg/kg (Duck hepatitis B virus [5]): 85.7%
- inhibition at 20 µM (Hepatitis B virus [6]): 75.4%
- inhibition at 20 µM (Hepatitis B virus [7]): 85.7%
- CC50 (HepG2 2.2.15): > 1000 µM
- inhibition in vivo at 10 mg/kg (Duck hepatitis B virus [8]): 57.1%
- inhibition in vivo at 10 mg/kg (Duck hepatitis B virus [9]): 75.6%
- inhibition at 20 µM (Hepatitis B virus [10]): 47.7%

SMILES: [N-]=[N+]=N[C@]1(CO)O[C@@H](n2cc(C(N)=O)nn2)[C@@H](F)[C@@H]1O
- inhibition at 5 µM (Hepatitis B virus [11]): 57.1%
- inhibition at 0.2 µM (Hepatitis B virus [12]): 28.2%
- inhibition in vivo at 0.2 mg/kg (Duck hepatitis B virus [13]): 21.4%
- inhibition at 0.2 µM (Hepatitis B virus [14]): 34.7%
- inhibition in vivo at 0.2 mg/kg (Duck hepatitis B virus [15]): 39.3%
- inhibition at 5 µM (Hepatitis B virus [16]): 21.9%
- inhibition at 0.2 µM (Hepatitis B virus [17]): 13.1%
- inhibition at 0.2 µM (Hepatitis B virus [18]): 15.8%
- inhibition at 1 µM (Hepatitis B virus [19]): 27.5%
- inhibition in vivo at 1 mg/kg (Duck hepatitis B virus [20]): 56.5%
- inhibition in vivo at 1 mg/kg (Duck hepatitis B virus [21]): 67.9%
- inhibition in vivo at 0.2 mg/kg (Duck hepatitis B virus [22]): 26.1%
- CC50 (HepG2 2.2.15): 526 µM
- inhibition at 5 µM (Hepatitis B virus [23]): 64.1%
- inhibition in vivo at 0.2 mg/kg (Duck hepatitis B virus [24]): 24.4%
- inhibition at 5 µM (Hepatitis B virus [25]): 49.2%
- inhibition at 1 µM (Hepatitis B virus [26]): 51%
- inhibition at 1 µM (Hepatitis B virus [27]): 52.4%
- inhibition at 5 µM (Hepatitis B virus [28]): 42.6%
- inhibition at 5 µM (Hepatitis B virus [29]): 45.3%
- inhibition in vivo at 1 mg/kg (Duck hepatitis B virus [30]): 53.7%
- inhibition at 1 µM (Hepatitis B virus [31]): 39.3%
- inhibition in vivo at 1 mg/kg (Duck hepatitis B virus [32]): 50%
- inhibition in vivo at 0.04 mg/kg (Duck hepatitis B virus [33]): 12.2%
- inhibition in vivo at 0.04 mg/kg (Duck hepatitis B virus [34]): 35.7%
- inhibition in vivo at 0.04 mg/kg (Duck hepatitis B virus [35]): 7.1%
- inhibition in vivo at 0.04 mg/kg (Duck hepatitis B virus [36]): 8.7%

SMILES: [N-]=[N+]=N[C@]1(CO)O[C@@H](n2ccc(N)nc2=O)[C@@H](F)[C@@H]1O [RO-0622]
- EC50 [37]: 0.0003 µM
